Test [1] relates to Cabbage Looper (Trichoplusia ni, TRIPNI). Description: Bioassays on Cabbage Looper (CL), 128-well diet tray assay. Type of test: in vivo. The settings on record: Trichoplusia ni. In outline:
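Test molecule was dissolved in 90:10 acetone-water, applied to artificial diet at 50 μg/cm^2 and allowed to dry. Second-instar larvae were then added, one to five per well, and trays held at 25° C for five to seven days before mortality was scored and averaged.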

Test [2] concerns Beet Armyworm (Spodoptera exigua, LAPHEG). Description: Bioassays on Beet Armyworm (BAW), 128-well diet tray assay. The settings on record: Spodoptera exigua. The test is classed as in vivo. In outline:
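Percent larval mortality, averaged across eight wells, scored after five to seven days at 25° C. under 14:10 light-dark. Each well held one to five second instars feeding on diet dosed at 50 μg/cm^2 with compound from 90:10 acetone-water, solvent dried off.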

[3] abbreviates: Cabbage Looper, rating class, read-out: CL.
The mark [4] stands for this setting: Beet Armyworm, rating class, read-out: BAW.
Setting [5] is: Table ABC: Biological Results, species CL, read-out: CL.
Setting [6] is: Table ABC: Biological Results, species BAW, read-out: BAW.
Where [7] appears, read: Cabbage Looper, Table ABC / ABC-DP rating, read-out: CL rating.
Setting [8] is: Beet Armyworm, Table ABC / ABC-DP rating, read-out: BAW rating.

Structures are written as SMILES. Read-outs that look alike come from different tables or passages of the source.

In the case of `CC(=O)Nc1cc(NC(=O)c2cc(NC(=O)[C@H]3[C@H](c4cc(Cl)cc(Cl)c4)C3(Cl)Cl)ccc2Cl)ccc1F` (relative stereo) [F1638, trans-N-(3-Acetamido-4-fluorophenyl)-2-chloro-5-(2,2-dichloro-3-(3,5-dichlorophenyl)cyclopropane-1-carboxamido)benzamide], the pest or weed control at 50 µg/cm2 in test [1] (setting [3]) and in test [2] (setting [4]) was 50 to 100% throughout.
As for `Cc1cc(NCc2ccc(NC(=O)OC(C)(C)C)cc2)ccc1NC(=O)c1cc(NC(=O)[C@H]2[C@H](c3cc(Cl)cc(Cl)c3)C2(Cl)Cl)ccc1Cl` (relative stereo) [F1348, trans-tert-Butyl (4-(((4-(2-chloro-5-(2,2-dichloro-3-(3,5-dichlorophenyl)cyclopropane-1-carboxamido)benzamido)-3-methylphenyl)amino)methyl)phenyl)carbamate], the pest or weed control at 50 µg/cm2 in test [1] (setting [5]) and in test [2] (setting [6]) was 50 to 100% each time.
On to `O=C(Nc1ccc(F)c(NC(=O)C(F)(F)F)c1)c1cc(NC(=O)[C@H]2[C@H](c3cc(Cl)cc(Cl)c3)C2(Cl)Cl)ccc1Cl` (relative stereo) [F1641, trans-2-Chloro-5-(2,2-dichloro-3-(3,5-dichlorophenyl)cyclopropane-1-carboxamido)-N-(4-fluoro-3-(2,2,2-trifluoroacetamido)phenyl)benzamide], for which the pest or weed control at 50 µg/cm2 in test [1] (setting [3]) and in test [2] (setting [4]) was 50 to 100% in each case.
For the compound `CC(=O)Nc1ccc(NC(=O)c2c(Cl)ccc(NC(=O)[C@H]3[C@H](c4ccc(F)c(Cl)c4)C3(Cl)Cl)c2Cl)cc1` (relative stereo) [F1102, trans-N-(4-Acetamidophenyl)-2,6-dichloro-3-(2,2-dichloro-3-(3-chloro-4-fluorophenyl)cyclopropane-1-carboxamido)benzamide], the pest or weed control at 50 µg/cm2 in test [1] (setting [5]) and in test [2] (setting [6]) was 50 to 100% throughout.
For orientation: mortality means the share of the test organisms that died. As for `O=C(NN=Cc1nccs1)c1cc(NC(=O)[C@H]2[C@H](c3cc(Cl)cc(Cl)c3)C2(Cl)Cl)ccc1Cl` (relative stereo) [F3006, trans-2,2-Dichloro-N-(4-chloro-3-(2-(thiazol-2-ylmethylene)hydrazine-1-carbonyl)phenyl)-3-(3,5-dichlorophenyl)cyclopropane-1-carboxamide], the mortality at 50 µg/cm2 is 50 to 100% in test [1] (168 h, second instar larvae, 50 μg/cm^2 of test molecule on artificial diet, 25° C., five to seven days, average of eight wells, read-out: CL % Control (or Mortality) rating) and 50 to 100% in test [2] (168 h, second instar larvae, 50 μg/cm^2 of test molecule on artificial diet, 25° C., five to seven days, average of eight wells, read-out: BAW % Control (or Mortality) rating). Further, the pest or weed control at 50 µg/cm2 in test [1] (setting [7]) and in test [2] (setting [8]) was 50 to 100% in each case.
Regarding `CC(=O)Nc1ccc(NC(=O)c2cc(NC(=O)[C@H]3[C@H](c4ccc(F)c(Cl)c4)C3(Cl)Cl)cc(F)c2F)cc1` (relative stereo) [F1210, trans-N-(4-Acetamidophenyl)-5-(2,2-dichloro-3-(3-chloro-4-fluorophenyl)cyclopropane-1-carboxamido)-2,3-difluorobenzamide], the pest or weed control at 50 µg/cm2 in test [1] (setting [5]) and in test [2] (setting [6]) was 50 to 100% throughout.
As to `Nc1c(F)ccc(NC(=O)c2cc(NC(=O)[C@H]3[C@H](c4ccc(Cl)c(C(F)(F)F)c4)C3(Cl)Cl)ccc2Cl)c1F` [F1631, N-(3-Amino-2,4-difluorophenyl)-2-chloro-5-((1R,3R)-2,2-dichloro-3-(4-chloro-3-(trifluoromethyl)phenyl)cyclopropane-1-carboxamido)benzamide], the pest or weed control at 50 µg/cm2 in test [1] (setting [3]) and in test [2] (setting [4]) was 50 to 100% each time.
With `CCCNc1c(F)ccc(NC(=O)c2cc(NC(=O)[C@H]3[C@H](c4ccc(F)c(C(F)(F)F)c4)C3(Cl)Cl)ccc2Cl)c1F` [F1838, 2-Chloro-5-((1R,3R)-2,2-dichloro-3-(4-fluoro-3-(trifluoromethyl)phenyl)cyclopropane-1-carboxamido)-N-(2,4-difluoro-3-(propylamino)phenyl)benzamide], the pest or weed control at 50 µg/cm2 in test [1] (setting [7]) and in test [2] (setting [8]) was 50 to 100% in each case.
Take `CCO[C@@H](C)C(=O)Nc1c(F)ccc(NC(=O)c2cc(NC(=O)[C@H]3[C@H](c4ccc(F)c(C(F)(F)F)c4)C3(Cl)Cl)ccc2Cl)c1F` [F1731, 2-Chloro-5-((1R,3R)-2,2-dichloro-3-(4-fluoro-3-(trifluoromethyl)phenyl)cyclopropane-1-carboxamido)-N-(3-((S)-2-ethoxypropanamido)-2,4-difluorophenyl)benzamide]: the pest or weed control at 50 µg/cm2 in test [1] (setting [3]) and in test [2] (setting [4]) was 50 to 100% in each case.
On to `O=C(Nc1ccc(F)c(NC(=O)C2(COC(F)(F)F)CC2)c1F)c1cc(NC(=O)[C@H]2[C@H](c3ccc(F)c(C(F)(F)F)c3)C2(Cl)Cl)ccc1Cl` [F1821, 2-Chloro-5-((1R,3R)-2,2-dichloro-3-(4-fluoro-3-(trifluoromethyl)phenyl)cyclopropane-1-carboxamido)-N-(2,4-difluoro-3-(1-((trifluoromethoxy)methyl)cyclopropane-1-carboxamido)phenyl)benzamide], for which the pest or weed control at 50 µg/cm2 in test [1] (setting [7]) and in test [2] (setting [8]) was 50 to 100% throughout.
With `O=C(Nc1cc(NC(=O)C(F)F)c(F)cc1F)c1cc(NC(=O)[C@H]2[C@H](c3ccc(F)c(Cl)c3)C2(Cl)Cl)cc(F)c1Cl` [F1400, 2-Chloro-5-((1R,3R)-2,2-dichloro-3-(3-chloro-4-fluorophenyl)cyclopropane-1-carboxamido)-N-(5-(2,2-difluoroacetamido)-2,4-difluorophenyl)-3-fluorobenzamide], the pest or weed control at 50 µg/cm2 in test [1] (setting [3]) and in test [2] (setting [4]) was 50 to 100% in each case.
Consider `Cc1cc(NC(=O)[C@H]2[C@H](c3cc(Cl)c(Cl)c(Cl)c3)C2(Cl)Cl)cc(C(=O)Nc2c(F)ccc(N)c2F)c1Cl` [F1427, N-(3-Amino-2,6-difluorophenyl)-2-chloro-5-((1R,3R)-2,2-dichloro-3-(3,4,5-trichlorophenyl)cyclopropane-1-carboxamido)-3-methylbenzamide], for which the pest or weed control at 50 µg/cm2 in test [1] (setting [3]) and in test [2] (setting [4]) was 50 to 100% in each case.
`O=C(Nc1cc(Br)c(F)cc1F)c1cc(NC(=O)[C@H]2[C@H](c3cc(Cl)cc(Cl)c3)C2(Cl)Cl)ccc1Cl` (relative stereo) [F1308, trans-N-(5-Bromo-2,4-difluorophenyl)-2-chloro-5-(2,2-dichloro-3-(3,5-dichlorophenyl)cyclopropane-1-carboxamido)benzamide]: the pest or weed control at 50 µg/cm2 in test [1] (setting [5]) and in test [2] (setting [6]) was 50 to 100% throughout.
`O=C(Nc1ccc(F)c(NC(=O)C(Cl)(Cl)Cl)c1F)c1cc(NC(=O)[C@H]2[C@H](c3ccc(Cl)c(Cl)c3)C2(Cl)Cl)ccc1Cl` [F1063, 2-Chloro-5-((1R,3R)-2,2-dichloro-3-(3,4-dichlorophenyl)cyclopropane-1-carboxamido)-N-(2,4-difluoro-3-(2,2,2-trichloroacetamido)phenyl)benzamide]: the pest or weed control at 50 µg/cm2 in test [1] (setting [5]) and in test [2] (setting [6]) was 50 to 100% in each case.
On to `O=C(Nc1ccc(F)c(NC(=O)C(F)F)c1F)c1cc(NC(=O)[C@H]2[C@H](c3cc(Cl)c(Cl)c(Cl)c3)C2(Cl)Cl)ccc1F` [F1527, 5-((1R,3R)-2,2-Dichloro-3-(3,4,5-trichlorophenyl)cyclopropane-1-carboxamido)-N-(3-(2,2-difluoroacetamido)-2,4-difluorophenyl)-2-fluorobenzamide], for which the pest or weed control at 50 µg/cm2 in test [1] (setting [3]) and in test [2] (setting [4]) was 50 to 100% in each case.

The values are drawn from patent publication US20250228239A1, “MOLECULES HAVING PESTICIDAL UTILITY, AND INTERMEDIATES, COMPOSITIONS, AND PROCESSES, RELATED THERETO” (priority 2024, published 2025).
